Values joined by “and” are separate entries in the source; they are usually repeats but may differ in a detail not shown here. Equal values may be shown once.
Biological target: T1, human HSD17B13 (Homo sapiens, UniProt Q7Z5P4)
T1 construct: human HSD17B13 (residues 2-300, NP_835236.2); 10x His (N); TEV protease site (N); made in house; host or cells: Sf9 (baculovirus)
T1 sequence (Q7Z5P4 2-300): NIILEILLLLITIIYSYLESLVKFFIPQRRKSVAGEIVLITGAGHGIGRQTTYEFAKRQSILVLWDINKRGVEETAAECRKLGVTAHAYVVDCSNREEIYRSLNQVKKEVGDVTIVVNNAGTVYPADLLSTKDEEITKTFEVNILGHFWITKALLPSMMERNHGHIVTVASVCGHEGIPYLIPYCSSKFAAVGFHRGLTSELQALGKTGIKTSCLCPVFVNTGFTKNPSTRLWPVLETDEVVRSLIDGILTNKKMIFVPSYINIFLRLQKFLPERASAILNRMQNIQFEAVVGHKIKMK
Assay: Co-factor (NAD+ / NADP) dependency biochemical assay, NAD(P)H-Glo readout, uninhibited vs inhibited reactions
Conditions: 30 μM 1, 20 nM protein
Description: Dependency of co-factor (NAD^+ and NADP^+) was determined using a purified protein HSD17B13 biochemical enzyme activity assay, using NAD(P)H-Glo luciferase readout (Promega). Substrates β-estradiol (Sigma, E8875) and Leukotriene B4 (LTB4, Cayman), 15 μM FAC in assay buffer (25 mM Tris-HCl (Sigma T2444) and 0.02% Triton X-100, pH 7.6), and 500 µM FAC co-factor (NAD^+ or NADP, Sigma, N8285) in assay buffer were added (2.5 µL/well each) to 384-well assay plates (Corning 3824) containing 2.5 μL of either 30 μM FAC inhibitor in 1% DMSO/assay buffer or vehicle (1% DMSO/assay buffer), in triplicate. The reaction was initiated by the addition of 2.5 µL/well-purified HSD17B13 protein (20 nM FAC in assay buffer). Compound, substrate, co-factor, and HSD17B13 protein were incubated in the dark at room temperature for 2 hours before the addition of 10 µL/well NAD(P)H-Glo detection reagent, prepared from luciferase detection reagent and reductase/reductase substrate, as per manufacturer’s instructions (Promega, G9061). Detection reagent was incubated in the dark for 1 hour at room temperature before plates were read on the Envision plate reader (Perkin Elmer) using a luminescent protocol. Data expressed as relative luminescent units (RLUs) were exported from the plate reader and plotted in GraphPad Prism.

With `O=C(NC[C@]1(O)CC[C@H](COc2ccccc2F)CC1)c1ccc(O)c(F)c1` [Compound 1] the “signal of inhibited reaction” value (LTB4 + NAD) was 49880 RLU and 52640 RLU, the “signal of inhibited reaction” value (LTB4 + NADP) was 49240 RLU and 47920 RLU and the “signal of inhibited reaction” value (β-estradiol + NAD) was 48200 RLU and 48320 RLU. The “signal of inhibited reaction” value (β-estradiol + NADP) was 47760 RLU and 49720 RLU.

Source: publication PMC10449848, “Structural basis of lipid-droplet localization of 17-beta-hydroxysteroid dehydrogenase 13” (Nature Communications, 2023)
